Active and inactive are the calls of the source. No cut-off for these calls is given here.
Experiments:
[1] = test system: Plasmodium berghei; assay: Antimalarial activity against Plasmodium berghei KBG 173 infected in mouse assessed as increase of mean survival time at 320 mg/kg; type: functional
[2] = test system: Mus musculus; assay: Toxicity in Plasmodium berghei KBG 173 infected mouse at 640 mg/kg; type: organism-based; set-up: dose 640 mg/kg; settings: in vivo
[3] = test system: Mus musculus; assay: Toxicity in Plasmodium berghei KBG 173 infected mouse at 320 mg/kg; type: organism-based; set-up: dose 320 mg/kg; settings: in vivo
[4] = test system: Plasmodium berghei; assay: Antimalarial activity against Plasmodium berghei KBG 173 infected in mouse assessed as increase of mean survival time at 640 mg/kg; type: functional
[5] = test system: Plasmodium berghei; assay: Antimalarial activity against Plasmodium berghei KBG 173 infected in mouse assessed as cured animal from parasite infection at 160 mg/kg; type: functional, organism-based; set-up: dose 160 mg/kg
[6] = test system: Plasmodium berghei; assay: Antimalarial activity against Plasmodium berghei KBG 173 infected in mouse assessed as cured animal from parasite infection at 80 mg/kg; type: functional, organism-based; set-up: dose 80 mg/kg
[7] = test system: Plasmodium berghei; assay: Antimalarial activity against Plasmodium berghei KBG 173 infected in mouse assessed as cured animal from parasite infection at 320 mg/kg; type: functional, organism-based; set-up: dose 320 mg/kg
[8] = test system: Plasmodium berghei; assay: Antimalarial activity against Plasmodium berghei KBG 173 infected in mouse assessed as increase of mean survival time at 40 mg/kg; type: functional
[9] = test system: Mus musculus; assay: Toxicity in Plasmodium berghei KBG 173 infected mouse at 160 mg/kg; type: organism-based; set-up: dose 160 mg/kg; settings: in vivo
[10] = test system: Mus musculus; assay: Toxicity in Plasmodium berghei KBG 173 infected mouse at 80 mg/kg; type: organism-based; set-up: dose 80 mg/kg; settings: in vivo
[11] = test system: Plasmodium berghei; assay: Antimalarial activity against Plasmodium berghei KBG 173 infected in mouse assessed as cured animal from parasite infection at 640 mg/kg; type: functional, organism-based; set-up: dose 640 mg/kg
[12] = test system: Plasmodium berghei; assay: Antimalarial activity against Plasmodium berghei KBG 173 infected in mouse assessed as increase of mean survival time at 80 mg/kg; type: functional
[13] = test system: Plasmodium berghei; assay: Antimalarial activity against Plasmodium berghei KBG 173 infected in mouse assessed as cured animal from parasite infection at 40 mg/kg; type: functional, organism-based; set-up: dose 40 mg/kg
[14] = test system: Plasmodium berghei; assay: Antimalarial activity against Plasmodium berghei KBG 173 infected in mouse assessed as increase of mean survival time at 160 mg/kg; type: functional
[15] = test system: Mus musculus; assay: Toxicity in Plasmodium berghei KBG 173 infected mouse at 40 mg/kg; type: organism-based; set-up: dose 40 mg/kg; settings: in vivo

C/C(=N/NC(=S)N1CC(C)CC(C)C1)c1ccccn1 (centres undefined)
Survival [1]: 0 days | Activity [2]: Toxic | Activity [3]: Toxic | Survival [4]: -0.4 days | Activity [5]: Active | Activity [6]: Active | Activity [7]: Active | Survival [8]: 5.6 days

C/C(=N/NC(=S)N(C)Cc1ccccc1)c1ccccn1
Activity [2]: Toxic | Activity [9]: Toxic | Activity [3]: Toxic | Activity [5]: Active | Activity [6]: Active | Activity [7]: Active | Activity [10]: Toxic | Survival [8]: 4 days | Activity [11]: Active

C/C(=N/NC(=S)N1CCN(c2ccccc2)CC1)c1ccccn1
Survival [1]: -0.1 days | Activity [2]: Toxic | Activity [3]: Toxic | Survival [12]: 11.7 days | Survival [4]: -0.4 days | Activity [5]: Active | Activity [6]: Active | Survival [8]: 7 days | Activity [13]: Active | Activity [11]: Active

C/C(=N/NC(=S)N1CC=C(c2ccccc2)CC1)c1ccccn1
Survival [12]: 2 days | Activity [5]: Active | Activity [7]: Active | Survival [8]: 0.8 days | Activity [11]: Active

C/C(=N/NC(=S)N1C(C)CCCC1C)c1ccccn1 (centres undefined)
Activity [2]: Toxic | Survival [12]: 1.6 days | Activity [7]: Active | Survival [14]: 6.3 days | Survival [8]: 0.5 days | Activity [11]: Active

C/C(=N/NC(=S)N1C(C)CCC1C)c1ccccn1 (centres undefined)
Survival [1]: 0 days | Activity [2]: Toxic | Activity [9]: Toxic | Activity [3]: Toxic | Survival [4]: 0 days | Activity [5]: Active | Activity [6]: Active | Activity [7]: Active | Survival [8]: 4.7 days | Activity [11]: Active

C/C(=N/NC(=S)N(C)C1CCCCCCC1)c1ccccn1
Activity [2]: Toxic | Survival [12]: 9.6 days | Survival [4]: 12.1 days | Activity [5]: Active | Activity [6]: Active | Activity [7]: Active | Survival [8]: 3.2 days | Activity [11]: Active

C/C(=N/NC(=S)N1CC2CCC(CC2)C1)c1ccccn1
Survival [1]: 0.2 days | Activity [2]: Toxic | Survival [4]: 0.4 days | Activity [5]: Active | Activity [6]: Active | Activity [13]: Active

C/C(=N/NC(=S)N(C)C1CCCC1)c1ccccn1
Survival [1]: 6 days | Activity [2]: Toxic | Activity [3]: Toxic | Survival [4]: 0 days | Activity [5]: Active | Activity [6]: Active | Activity [7]: Active | Survival [8]: 1.5 days | Activity [11]: Active

C/C(=N/NC(=S)N1CCN(c2cccc(C(F)(F)F)c2)CC1)c1ccccn1
Activity [2]: Toxic | Activity [3]: Toxic | Survival [12]: 2.4 days | Activity [5]: Active | Activity [7]: Active | Survival [8]: 0.1 days | Activity [11]: Active

C/C(=N/NC(=S)N1CCC(Cc2ccccc2)CC1)c1ccccn1
Survival [12]: 2.8 days | Activity [5]: Active | Activity [7]: Active | Survival [8]: 0.4 days | Activity [11]: Active

C/C(=N/NC(=S)N1CCN(Cc2ccccc2)CC1)c1ccccn1
Survival [12]: 4.4 days | Activity [7]: Active | Survival [14]: 5.6 days | Survival [8]: 1.6 days | Activity [11]: Active

CCN(CC)C(=S)N/N=C(/C)c1ccccn1
Activity [2]: Toxic | Activity [9]: Toxic | Survival [4]: 0 days | Activity [5]: Active | Activity [6]: Active | Activity [10]: Toxic | Survival [8]: 7.2 days | Activity [13]: Active | Activity [11]: Active

C/C(=N/NC(=S)N(C)CCc1ccccn1)c1ccccn1
Survival [1]: 6.7 days | Activity [2]: Toxic | Activity [9]: Toxic | Activity [3]: Toxic | Activity [15]: Toxic | Survival [12]: 3.3 days | Survival [4]: 0 days | Activity [5]: Active | Activity [7]: Active | Survival [14]: 0 days | Survival [8]: 1.7 days

C/C(=N/NC(=S)N1CCN(c2ccccn2)CC1)c1ccccn1
Survival [1]: 0.7 days | Activity [2]: Toxic | Activity [3]: Toxic | Survival [4]: 0 days

CCCCN(C)C(=S)N/N=C(/C)c1ccccn1
Survival [1]: 0 days | Activity [2]: Toxic | Activity [9]: Toxic | Activity [3]: Toxic | Survival [12]: 8.1 days | Survival [4]: 0 days | Activity [5]: Active | Activity [6]: Active | Activity [7]: Active | Survival [14]: 6.9 days | Survival [8]: 5.9 days | Activity [11]: Active

Reference: ChEMBL document CHEMBL3244333, “2-Acetylpyridine thiosemicarbazones. 2. N4,N4-Disubstituted derivatives as potential antimalarial agents” (J Med Chem, 1979)
